pEC50, pIC50: −log10 of the molar value. ≈ marks a conversion by molar mass, not a printed value. Structures can show the parent of a compound that is named as a salt.
Experiments:
[1] = molecular target: T1, Human immunodeficiency virus type 1 integrase (Human immunodeficiency virus 1, UniProt Q7ZJM1); assay: Inhibition of HIV-1 integrase
[2] = test system: Human immunodeficiency virus 1; assay: Antiviral activity against wild type HIV1 3B infected in human C8166 cells assessed as cytopathic effect by counting the number of syncytia; type: functional, organism-based; details: Human immunodeficiency virus 1, 3B
[3] = Therapeutic index, ratio of CC50 for human C8166 cells to EC50 for HIV-1 3B; type: cell-based; details: read-out: Ratio CC50/EC50
[4] = Inhibition of HIV-1 integrase LEDGF/p75 (unknown origin) interaction; set-up: species or system Human immunodeficiency virus 1
[5] = test system: Human immunodeficiency virus 1; assay: Antiviral activity against wild type HIV1 3B infected in human MT-2 cells assessed as protection of infected cells by MTT colorimetric method; type: functional, organism-based; details: Human immunodeficiency virus 1, 3B, MT2
[6] = Selectivity index, ratio of CC50 for human TZM-bl cells to EC50 for HIV-1 3B; type: toxicity, cell-based; details: read-out: Ratio CC50/EC50
[7] = test system: Human immunodeficiency virus 1; assay: Antiviral activity against HIV-1 3B infected in human TZM-bl cells; type: functional, organism-based; details: Human immunodeficiency virus 1, 3B
[8] = Cytotoxicity against human TZM-bl cells; type: cell-based
[9] = test system: Human immunodeficiency virus 1; assay: Antiviral activity against HIV1; type: functional, organism-based
[10] = molecular target: T1, Human immunodeficiency virus type 1 integrase; assay: Inhibition of HIV-1 integrase strand transfer activity
Human alphaherpesvirus 2 = assay: Antiviral activity against Herpes simplex virus type 2; type: functional, organism-based; details: for pIC50: read-out: IC50
Human alphaherpesvirus 1 = assay: Antiviral activity against Herpes simplex virus type 1; type: functional, organism-based
[11] = Cytotoxicity against human peripheral blood leukocyte cells at 100 uM; type: cell-based
[12] = test system: Human immunodeficiency virus 1; assay: Antiviral activity against HIV1 infected in human peripheral blood leukocyte cells assessed as inhibition of replication; type: functional, organism-based
[13] = read-out: ID50 (the source's name)

T1 sequence (Q7ZJM1 whole entry): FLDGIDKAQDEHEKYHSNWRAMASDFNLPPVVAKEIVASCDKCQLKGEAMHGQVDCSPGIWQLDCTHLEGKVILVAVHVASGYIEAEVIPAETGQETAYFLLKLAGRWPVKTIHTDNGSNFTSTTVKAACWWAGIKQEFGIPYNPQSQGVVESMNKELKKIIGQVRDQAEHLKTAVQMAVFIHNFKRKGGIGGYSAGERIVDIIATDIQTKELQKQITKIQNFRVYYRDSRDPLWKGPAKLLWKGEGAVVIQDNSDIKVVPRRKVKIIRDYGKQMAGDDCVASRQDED

Cc1cc(C)cc(Cn2cc(C(=O)/C=C(\O)C(=O)O)c3c(O)cccc32)c1
pIC50 [1]: 5.46

O=[N+]([O-])c1ccccc1-n1ccc2ccccc21
EC50 [2]: 7.88 µg/mL (≈ 33.1 µM)
selectivity ratio [3]: 24.6

COc1cccc2c1c(C(=O)/C=C(\O)C(=O)O)cn2Cc1ccc(F)cc1
pIC50 [4]: 4.44

O=c1ccn(CCOc2ccccc2Oc2cccc3[nH]ccc23)c(=O)[nH]1
pEC50 [5]: 7.07

CCOC(=O)C(O)(c1c[nH]c2ccc([N+](=O)[O-])cc12)C(F)(F)F (stereo not given)
selectivity ratio [6]: 11.1
pEC50 [7]: 7.72
CC50 [8]: 211 µM

O=[N+]([O-])c1ccc2c(ccn2-c2ccccc2[N+](=O)[O-])c1
EC50 [2]: 7.88 µg/mL (≈ 27.8 µM)
selectivity ratio [3]: 24.6

Cc1cn(-c2ccc([N+](=O)[O-])cc2)c2ccccc12
EC50 [2]: 7.88 µg/mL (≈ 31.2 µM)
selectivity ratio [3]: 24.6

COc1cccc2c1c(C(=O)/C=C(\O)C(=O)O)cn2Cc1cc(C)cc(C)c1
pEC50 [9]: 5.33
pIC50 [10]: 5.26

CC(C)CC(=O)[C@@H](O)Cc1c[nH]c2ccccc12
IC50 (Human alphaherpesvirus 2; [13]): 1.5 µg/mL
IC50 (Human alphaherpesvirus 1; [13]): 1.5 µg/mL (≈ 6.11 µM)

C[C@H]1c2nc(N)[nH]c2[C@]2(O)C[C@H]1c1c(-c3cnc(-c4c[nH]c5cc(Br)ccc45)c(=O)[nH]3)c[nH]c1C2=O
pEC50 [9]: 6.04
pEC50 (Human alphaherpesvirus 1): 4.02

O=C(/C=C/c1c[nH]c2c(O)cccc12)N/C=C/c1c[nH]c2ccccc12
pIC50 (Human alphaherpesvirus 2): 6.00

COc1ccc2c(c1)N=CN1CCc3c([nH]c4ccccc34)C3=NCC[C@@]321
pEC50 [9]: 7.70

COc1ccc2c3c([nH]c2c1)C1=NCC[C@]12c1ccccc1N=CN2CC3
pEC50 [9]: 6.02

CCNc1cccnc1N1CCN(C(=O)c2cc3cc(OC)ccc3[nH]2)CC1 [ATEVIRDINE MESYLATE]
Activity [11]: 50%
pIC50 [12]: 9.00

O=C(/C=C/c1c[nH]c2ccccc12)N/C=C/c1c[nH]c2ccccc12 [CHONDRIAMIDE A]
pIC50 (Human alphaherpesvirus 2): 6.00

O=C(/C=C/c1c[nH]c2ccccc12)N/C=C\c1c[nH]c2ccccc12 [CHONDRIAMIDE C]
pIC50 (Human alphaherpesvirus 2): 6.00

Reference: ChEMBL document CHEMBL3352429, “A review on recent developments of indole-containing antiviral agents” (Eur J Med Chem, 2015)
